Experimental data as given in the supplement of paper PMC3974653.
Structures can show the parent of a compound that is named as a salt.

System: MTT (mouse pheochromocytoma)
Assay: IC50 of cell viability (ATP content)
Settings: (24 or 48 h)
Summary of the method: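 Library compounds were tested at 8 final concentrations (0.5 nM to 46 µM) on MTT mouse pheochromocytoma cells for 24 or 48 hrs, with readout by CellTiter-Glo ATP luminescence. Signals were normalised with positive-control wells at 100% and DMSO wells at 0%. IC50 values were obtained by a four-parameter logistic fit.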

SMILES	IC50 of cell viability [µM]
C=C1/C(=C\C=C2/CCC[C@]3(C)[C@@H]([C@H](C)CCCC(C)(C)O)CC[C@@H]23)C[C@@H](O)C[C@@H]1O [CALCITRIOL]	> 46
CCCCC [n-Pentane]	> 46
CC(C)=CC1C(C(=O)OC\2CC(=O)\C(=C2C)CC=C)C1(C)C (centres undefined) [Allethrin]	> 46
CC(C)[C@@]1(NC(=O)[C@@H]2C[C@@H]3c4cccc5[nH]cc(c45)C[C@H]3N(C)C2)O[C@@]2(O)[C@@H]3CCCN3C(=O)[C@H](Cc3ccccc3)N2C1=O [Dihydroergocristine]	> 46
COc1cc2c(cc1OC)[C@@H](Cc1cc(OC)c(OC)c(OC)c1)[N@+](C)(CCCOC(=O)CC/C=C/CCC(=O)OCCC[N@+]1(C)CCc3cc(OC)c(OC)cc3[C@H]1Cc1cc(OC)c(OC)c(OC)c1)CC2 [Mivacurium]	> 46
NCCCC(N)C(=O)O [Poly-L-ornithine hydrochloride]	> 46
CC(=O)[C@H]1CC[C@H]2[C@@H]3CC[C@H]4C[C@](C)(O)CC[C@]4(C)[C@H]3CC[C@]12C [GANAXOLONUM]	> 46
O=C(NC(=O)c1c(F)cccc1F)Nc1cc(Cl)c(OC(F)(F)C(F)C(F)(F)F)cc1Cl (centres undefined) [Lufenuron]	> 46
COC1=NC(=NC(=C1N\C2=N\CCN2)Cl)C [Moxonidine]	> 46
CCCCCCC(O)C/C=C/CCCCCCCC(=O)O (centres undefined) [POTASSIUM RICINOLEATE]	> 46
CC1CCC(C(C)C)C(=O)C1 (centres undefined) [MENTHONE]	> 46
CCCCC/C=C\C/C=C\C/C=C\CCCCC(=O)O [Gamolenic acid]	> 46
CC(O)CN(C)C (centres undefined) [Dimepranolum]	> 46
C=CC(=O)NCNC(=O)C=C [N,N'-Methylenebis(acrylamide)]	> 46
CCCCC(=O)O [Valeric acid]	> 46
CCCCCCCCCCCCCC(=O)OCC(COP(=O)([O-])OCC[N+](C)(C)C)OC(=O)CCCCCCCCCCCCC (centres undefined) [DIMYRISTOYL LECITHIN]	> 46
C[Se]CC[C@H](N)C(=O)O [SELENOMETHIONINE, L-]	> 46
COc1cc(OC)cc(OC)c1 [1,3,5-TRIMETHOXYBENZENE]	> 46
O[C@@H]1CO[C@H]2[C@@H]1OC[C@@H]2O [ISOSORBIDE]	> 46
O=C(CO)C(O)C(O)C(O)CO [D-LEVULOSE]	> 46
CCCN1C[C@H](CSC)C[C@@H]2c3cccc4[nH]cc(c34)C[C@H]21 [PERGOLIDE METHANESULFONATE]	> 46
CN1C(=O)COc2c(C(=O)NC3CN4CCC3CC4)cc(Cl)cc21 (centres undefined)	> 46
NC/1=N/C2=C([NH]C=N2)C(=S)N1 [THIOGUANINE]	> 46
CC(C)O [2-Propanol]	> 46
CCCN[C@H]1CCc2nc(N)sc2C1 [PRAMIPEXOLE DIHYDROCHLORIDE]	> 46
c1csc(C2(N3CCCCC3)CCCCC2)c1 [TENOCYCLIDINUM]	> 46

The next lines start with the values.

IC50 of cell viability [µM]	SMILES
> 46	O=C([O-])C1=C(CSc2nnnn2CS(=O)(=O)[O-])CS[C@@H]2[C@H](NC(=O)[C@H](O)c3ccccc3)C(=O)N12 [CEFONICID SODIUM]
> 46	O=C(O)CNC(=O)c1ccccc1I [IODOHIPPURATE SODIUM, I-123]
> 46	CC(=O)O[C@@H](C)C(=O)OCC[N+](C)(C)C.CC(=O)O[C@@H](C)C(=O)OCC[N+](C)(C)C.O=S(=O)([O-])c1cccc2c(S(=O)(=O)[O-])cccc12 [Aclatonium napadisilate]
> 46	CC(O)C(O)[C@H]1CNc2nc(N)nc(O)c2N1 (some centres undefined) [Sapropterin]
> 46	COC(=O)c1c(Cl)c(Cl)c(C(=O)OC)c(Cl)c1Cl [Chlorthal-dimethyl]
> 46	C[C@H]1NCc2cc(-c3ccc4c(=O)c(C(=O)O)cn(C5CC5)c4c3OC(F)F)ccc21 [Garenoxacin]
> 46	CC(=O)OCC(=O)[C@@]1(O)CC[C@@H]2[C@H]3CC\C4=C\C(=O)\C=C/[C@]4(C)[C@]3(F)[C@@H](O)C[C@@]12C [Isoflupredone acetate]
> 46	CCN(CC)CCOC(=O)C1(c2ccccc2)CCCC1 [CARAMIPHEN EDISYLATE]
> 46	Nc1ccc([S+](=O)([O-])Nc2ccc(Cl)nn2)cc1 [Sulfachloropyridazine]
> 46	Cc1ccc(S(=O)(=O)NC(=O)NC2CCCC2)cc1 [TOLPENTAMIDUM]
> 46	CC#CCC(C)[C@H](O)/C=C/C1[C@H](O)C[C@@H]2C/C(=C\CCCC(=O)O)C[C@H]12 (some centres undefined) [Iloprost]
> 46	CC/1=C(CCN2CCC(CC2)C(=O)C3=CC=C(F)C=C3)/C(=O)N4\C=C/C=C\C4=N1 [PIRENPERONE]
> 46	CC/1=C/N(C(=O)/C=C1)C2=CC=CC=C2 [Pirfenidone]
> 46	CC(C)C(NC(=O)C(CC(=O)O)NC(=O)C(CCCCN)NC(=O)C(N)CCCNC(=N)N)C(=O)NC(Cc1ccc(O)cc1)C(=O)O (centres undefined) [THYMOPENTINUM]
> 46	C[C@@H]1CC2[C@@H]3C[C@H](F)C4=CC(=O)C(Cl)=C[C@]4(C)[C@@]3(F)[C@H](O)C[C@]2(C)[C@@]1(O)C(=O)CO (some centres undefined) [Halometasona]
> 46	Cc1c(N)nc([C@@H](CC(N)=O)NC[C@H](N)C(N)=O)nc1C(=O)N[C@H](C(=O)N[C@@H](C)[C@@H](O)[C@@H](C)C(=O)N[C@H](C(=O)NCCc1nc(-c2nc(C(=O)NCCCN[C@H](C)c3ccccc3)cs2)cs1)[C@H](C)O)[C@@H](O[C@H]1O[C@@H](CO)[C@H](O)[C@@H](O)[C@H]1O[C@H]1O[C@@H](CO)[C@@H](O)[C@H](OC(N)=O)[C@H]1O)c1cnc[nH]1 [PEPLOMYCIN SULFATE]
> 46	CN1C2CCC1CC(NC(=O)n1c(=O)[nH]c3ccccc31)C2 (centres undefined) [ITASETRON HYDROCHLORIDE HYDRATE]
> 46	CC1(S(=O)(=O)[O-])CC(=O)c2ccccc2C1=O (centres undefined) [Menadione sodium bisulfite]
> 46	O=C(O)Cc1ccc(CCN[S+](=O)([O-])c2ccc(Cl)cc2)cc1 [DALTROBANUM]
> 46	Nc1ccc([S+](=O)([O-])Nc2ncccn2)cc1.[Ag] [sulfadiazine]
> 46	C[S+](=O)([O-])c1ccc([C@H](O)[C@H](CO)NC(=O)C(Cl)Cl)cc1 [Thiamphenicol]
> 46	Cc1ccc([S+](=O)([O-])NC(=O)NC(C)Cc2ccccc2)cc1 (centres undefined) [TOSIFENUM]
> 46	CC(CCc1ccc2c(c1)OCO2)NN (centres undefined) [SAFRAZINE HYDROCHLORIDE]
> 46	C=C(Nc1ccc(OCC)cc1)Nc1ccc(OCC)cc1 [PHENACAINE HYDROCHLORIDE]
> 46	O=C(NCN1CCOCC1)c1cnccn1 [Morinamida]
> 46	Cn1c([N+](=O)[O-])cnc1COC(N)=O [RONIDAZOLE]
> 46	N=C(N)c1ccc(/C=C/c2ccc(C(=N)N)cc2O)cc1 [HYDROXYSTILBAMIDINE ISETHIONATE]
> 46	NNC(=O)c1ccncc1 [Isoniazid]
